Values quoted from earlier work, collected in patent US20100009005A1, “Novel acetysalicylic acid formulations” (Flamel Technologies ,S.A., priority 2005, published 2010).

time of peak plasma concentrations (after oral administration): 2 to 3 h
half life (in vivo): about 17 hours
Structure (SMILES): CS(=O)(=O)c1ccc(C2=C(c3ccccc3)C(=O)OC2)cc1 [rofecoxib]
